Laboratory results taken from patent publication US20240091203A1, “METHODS FOR TREATING NON-OBSTRUCTIVE HYPERTROPHIC CARDIOMYOPATHY” (Cytokinetics, Incorporated, priority 2022, published 2024).
Entries after “also recorded” stand apart in the source; their conditions may differ.

Assay: Phase 1 plasma pharmacokinetics, single-ascending dose (SAD) cohorts
Type: in vivo, human
Conditions: for AUC24 / Cmax / AUCinf / CL/F / t1/2 / Tmax: SAD; for CL/F / t1/2: mean ± SD; for Tmax: median (range)
Experimental: Single-ascending dose (SAD) cohorts. The SAD portion of the study used a randomized, double-blind, placebo-controlled, sequential, escalating-dose design, in which participants received single-ascending oral doses of the study drug. Seven cohorts were dosed in sequence (FIG. 2).
Pharmacokinetic analyses. For all study groups, blood samples for PK assessment were obtained pre-dose, up to 12 times daily on day 1, and then at regular intervals throughout the study. Blood samples were collected according to the following schedule: SAD Cohorts: Day 1: pre-dose and 0.25, 0.5, 1, 1.5, 2, 2.5, 3, 4, 6, 8, 12, 16, 24, 36, 48, 72, 96, and 216 h post dose. MAD Cohorts (14-day Dosing): Day 1: pre-dose and 0.25, 0.5, 1, 1.5, 2, 2.5, 3, 4, 6, 8, and 12 h post dose; Days 2, 4, 5, 6, and 9: pre-dose (corresponding to trough samples following dosing on days 1, 3, 4, 5, and 8) and 1.5 h post dose; Days 3, 7, 8, 10, 11, 12, and 13: pre-dose (corresponding to trough samples following dosing on days 2, 6, 7, 9, 10, 11, and 12); Day 14: pre-dose and 0.25, 0.5, 1.5, 2, 2.5, 3, 4, 6, 8, 12, 16, 24, 36, 48, 72, and 168 h post dose. MAD Cohort (17-Day Dosing): Day 1: pre-dose and 0.25, 0.5, 1, 1.5, 2, 2.5, 3, 4, 6, 8, and 12 h post dose; Days 2, 4, 5, 6, and 9: pre-dose (corresponding to trough samples following dosing on days 1, 3, 4, 5, and 8) and 1.5 h post dose; Days 3, 7, 8, 10, 11, 12, 13, 14, 15, and 16: pre-dose (corresponding to trough samples following dosing on days 2, 6, 7, 9, 10, 11, and 12); Day 17: pre-dose and 0.25, 0.5, 1.5, 2, 2.5, 3, 5, 7, 9, 12, 24, 36, 48, 72, and 168 h post dose. CYPD6-PM Cohort: Day 1: pre-dose and 0.25, 0.5, 1, 1.5, 2, 2.5, 3, 4, 6, 8, 12, 16, 24, 36, 48, 72, 96, 216, 312, and 552 h post dose. Food-Effect Cohort: Day 1: pre-dose and 0.25, 0.5, 1, 1.5, 2, 2.5, 3, 4, 6, 8, 12, 16, 24, 36, 48, 72, 96, 144, and 216 h post dose. Standard non-compartmental methods were used to calculate PK parameters using Phoenix® WinNonlin® Version 7.0; actual sample collection times were utilized.
Statistical Analysis. The sample size chosen for this study was based upon precedent set by other first-in-human PK studies of similar nature and was not based on power calculations. […] All participants who received ≥1 dose of the study drug and had ≥1 evaluable PK plasma profile were included in the PK analysis set. […]

[1] = single oral 1 mg, geometric mean (geometric CV %), n = 6
[2] = single oral 3 mg, geometric mean (geometric CV %), n = 6
[3] = single oral 25 mg, geometric mean (geometric CV %), n = 6
[4] = single oral 40 mg, geometric mean (geometric CV %), n = 6
[5] = single oral 50 mg, geometric mean (geometric CV %), n = 11

CCc1nc(-c2ccc3c(c2)CC[C@H]3NC(=O)c2cnn(C)c2)no1 [aficamten, (R)—N-(5-(5-ethyl-1,2,4-oxadiazol-3-yl)-2,3-dihydro-1H-inden-1-yl)-1-methyl-1H-pyrazole-4-carboxamide]
maximum time to maximum observed concentration across all participants (SAD cohorts): 4.0 h | AUC24 [1]: 50 (20) ng · h/ml | Cmax [1]: 5.8 (38.4) ng/ml | AUCinf (single oral 3 mg, geometric mean (geometric CV %), n = 5): 823 (61) ng · h/ml | AUC24 [2]: 174 (27) ng · h/ml | Cmax [2]: 26.1 (82.4) ng/ml | CL/F (single oral 3 mg, n = 5): 4.2 ± 3.1 L/h | t1/2 (single oral 3 mg, n = 5): 75.1 ± 21.8 h | Tmax (single oral 3 mg, n = 6): 1.3 (0.5, 2.6) h | AUC24 (single oral 10 mg (extensive metabolizers), geometric mean (geometric CV %), n = 6): 679 ng·h/mL | t1/2 (single oral 10 mg (extensive metabolizers), n = 4): 84.7 ± 17.7 h | AUCinf (single oral 10 mg, geometric mean (geometric CV %), n = 4): 3,434 (24) ng · h/ml | Cmax (single oral 10 mg, geometric mean (geometric CV %), n = 6): 70.5 (69.0) ng/ml | CL/F (single oral 10 mg, n = 4): 3.0 ± 0.7 L/h | Tmax (single oral 10 mg, n = 6): 2.8 (0.5, 3.0) h | AUC24 [3]: 1,493 (15) ng · h/ml | AUCinf [3]: 7,113 (15) ng · h/ml | Cmax [3]: 192.6 (23.3) ng/ml | CL/F (single oral 25 mg, n = 6): 3.6 ± 0.5 L/h | Tmax (single oral 25 mg, n = 6): 1.8 (0.5, 4.0) h | AUCinf (single oral 40 mg, geometric mean (geometric CV %), n = 5): 11,860 (20) ng · h/ml | AUC24 [4]: 2,532 (13) ng · h/ml | Cmax [4]: 383.2 (67.9) ng/ml | t1/2 (single oral 40 mg, n = 4): 79.2 ± 18.5 h | CL/F (single oral 40 mg, n = 5): 3.4 ± 0.6 L/h | AUCinf (single oral 50 mg, geometric mean (geometric CV %), n = 9): 13,740 (35) ng · h/ml | AUC24 [5]: 2,833 (26) ng · h/ml | Cmax [5]: 359.4 (38.9) ng/ml | CL/F (single oral 50 mg, n = 9): 3.8 ± 1.1 L/h | t1/2 (single oral 50 mg, n = 9): 80.4 ± 14.9 h | Tmax (single oral 50 mg, n = 11): 1.0 (0.5, 2.5) h | Tmax (single oral 75 mg, n = 1): 0.5 (0.5, 0.5) h | AUC24 (single oral 75 mg, n = 1): 4,556 (—) ng · h/ml | Cmax (single oral 75 mg, n = 1): 1,220 (—) ng/ml | dose proportionality of Cmax and exposure (AUC24) (single oral doses between 1 mg and 50 mg): dose-proportional; also recorded: linear kinetics
